Assay results taken from patent US20260242428A1, “POLYETHYLENIMINE-MODIFIED CRY PROTEINS AND THEIR USE” (priority 2024, published 2026).

What was measured:
[1] = tested on: 3A-FDH/3A-LDH particles, unmodified (co-immobilized Cry3Aa-formate dehydrogenase and Cry3Aa-leucine dehydrogenase); assay: NADH binding capacity of 3A-FDH/3A-LDH particles without PEI; details: absorbance at 340 nm
[2] = target: T1, PEI-modified CadA-Cry1Ab fusion particles (E. coli lysine decarboxylase CadA, NP_418555, fused to Cry1Ab) (Escherichia coli, UniProt P0A9H3); assay: PLP binding capacity of PEI-CadA-Cry1Ab particles
T1 construct: made in house; host or cells: E. coli BL21(DE3)
Description: For binding analysis, PEI-CadA-Cry1Ab fusion particles (50 μg/mL) were incubated with increasing concentrations of PLP (0-2 mM) for 25 min under gentle rotation at room temperature. After incubation, the particles were centrifuged at 8000 rpm for 10 min, and the unbound PLP in the supernatant was quantified. A calibration curve, generated from PLP standards treated under identical conditions, was used to determine the amount of PLP bound to the particles. To stabilize the absorbance peak of PLP following Schiff base formation with the protein, 1 M HCl was added to the unbound PLP supernatants in a 1:1 (v/v) ratio. After a 5-minute incubation, the absorbance of the unbound PLP was measured at 294 nm using an Eppendorf Bio-Spectrometer (Eppendorf AG. Germany). The PLP concentration was determined using a standard curve generated for various PLP amounts treated with 1M HCL based on the Beer-Lambert law.

[3] = target: T2, CadA-Cry1Ab fusion particles, unmodified (E. coli lysine decarboxylase CadA, NP_418555, fused to Cry1Ab) (Escherichia coli, UniProt P0A9H3); assay: PLP binding capacity of unmodified CadA-Cry1Ab particles; details: before PEI modification
T2 construct: made in house; host or cells: E. coli BL21(DE3)

[4] = target: T3, PEI-modified Cry3Aa (3A-PEI) crystals; Cry3Aa, SEQ ID NO: 4 (Bacillus thuringiensis subsp. tenebrionis, UniProt P0A379, F640R/R158P); assay: Cofactor binding capacity of 3A-PEI crystals; details: 0.25 mM cofactor, 20 μg crystals, 10° C., 30 min
T3 construct: made in house; host or cells: Bacillus thuringiensis B7407G
Description: To compare the binding capacity of 3A-PEI crystals with Cry3Aa and Pos3Aa crystals, the same experiment was conducted as the control.
To evaluate whether 3A-PEI crystals could binding to other phosphorylated cofactors, PLP, NAD^+, NADP^+, NADPH, FADH2, CoA, Riboflavin, and TPP (each at a concentration of 0.25 mM) were incubated with 20 μg of 3A-PEI crystals for 30 min under slow rotation at 10° C. Subsequently, the crystals were centrifugated and the amount of bound cofactor within the crystals was quantified.

NC(=O)C1=CN([C@@H]2O[C@H](COP(=O)(O)OP(=O)(O)OC[C@H]3O[C@@H](n4cnc5c(N)ncnc54)[C@H](O)[C@@H]3O)[C@@H](O)[C@H]2O)C=CC1 [NADH, nicotinamide adenine dinucleotide]
NADH retained [1]: ~ 4.2±0.3 μmol NADH per g

Cc1ncc(COP(=O)(O)O)c(C=O)c1O [PLP, Pyridoxal 5′-phosphate]
PLP binding capacity ([2]; PLP 0-2 mM, 25 min, room temperature): ~ 1300 μmol/g
PLP binding capacity enhancement by PEI modification ([2]; vs unmodified CadA-Cry1Ab): 13 fold
PLP binding capacity [3]: ~ 100 μmol/g
binding affinity (binding capacity of cofactor) [4]: 650±2 μmol/g of support

Cc1ncc(C[n+]2csc(CCOP(=O)(O)OP(=O)(O)O)c2C)c(N)n1 [TPP]
binding affinity (binding capacity of cofactor) [4]: 160±1 μmol/g of support
